The values that follow come from patent US20110294778A1, “HEPATITIS C INHIBITOR COMPOUNDS” (priority 2009, published 2011).

SMILES strings stand for the structures.

For experiment [1], the system named is HCV genotype 1a (strain H77) subgenomic replicon with NS3 resistance mutation R155K in Huh-7 cells. In words: HCV replicon RNA replication assay (NS3 protease variants), genotype 1a R155K. In kind it is cell-based. The settings on record: Hepatitis C virus, Huh-7, 72 h, read-out: R155K 1a EC50 (nM). For orientation: A replicon is a self-replicating genome or part of one, used to study replication in cells.

Experiment [2] relates to HCV genotype 1b (Con-1) subgenomic replicon with NS3 resistance mutation D168V in Huh-7 cells. In words: HCV replicon RNA replication assay (NS3 protease variants), genotype 1b D168V. The conditions noted are these: Hepatitis C virus, Huh-7, 72 h, read-out: D168V 1b EC50 (nM). Format: cell-based.

What is called EC50 is the concentration at which the effect is half-maximal. `COc1ccc2c(O[C@@H]3C[C@H]4C(=O)N[C@]5(C(=O)NS(=O)(=O)C6(C)CC6)C[C@H]5/C=C\CCCCC[C@H](NC(=O)N5CC(C)(OC)C5)C(=O)N4C3)cc(OC(C)C)nc2c1C` [Compound 2009, (2R,6S,12Z,13aS,14aR,16aS)-6-{[(3-methoxy-3-methylazetidin-1-yl)carbonyl]amino}-2-{[7-methoxy-8-methyl-2-(propan-2-yloxy)quinolin-4-yl]oxy}-N-[(1-methylcyclopropyl)sulfonyl]-5,16-dioxo-1,2,3,6,7,8,9,10,11,13a,14,15,16,16a-tetradecahydrocyclopropa[e]pyrrolo[1,2-a][1,4]diazacyclopentadecine-14a(5H)-carboxamide]: the EC50 in experiment [1] came out at 6.8 nM; in experiment [2], 2.9 nM.
The corresponding values for `COc1ccc2c(O[C@@H]3C[C@H]4C(=O)N[C@]5(C(=O)NS(=O)(=O)C6(C)CC6)C[C@H]5/C=C\CCCCC[C@H](NC(=O)N5CCC5)C(=O)N4C3)cc(OC3CC3)nc2c1C` [Compound 2010, (2R,6S,12Z,13aS,14aR,16aS)-6-[(azetidin-1-ylcarbonyl)amino]-2-{[2-(cyclopropyloxy)-7-methoxy-8-methylquinolin-4-yl]oxy}-N-[(1-methylcyclopropyl)sulfonyl]-5,16-dioxo-1,2,3,6,7,8,9,10,11,13a,14,15,16,16a-tetradecahydrocyclopropa[e]pyrrolo[1,2-a][1,4]diazacyclopentadecine-14a(5H)-carboxamide] are 6.4 nM and 0.66 nM.
As for `COc1ccc2c(O[C@@H]3C[C@H]4C(=O)N[C@]5(C(=O)NS(=O)(=O)C6CC6)C[C@H]5/C=C\CCCCC[C@H](NC(=O)N5CC(C)(C)C5)C(=O)N4C3)cc(OC(C)C)nc2c1C` [Compound 2011, (2R,6S,12Z,13aS,14aR,16aS)-N-(cyclopropylsulfonyl)-6-{[(3,3-dimethylazetidin-1-yl)carbonyl]amino}-2-{[7-methoxy-8-methyl-2-(propan-2-yloxy)quinolin-4-yl]oxy}-5,16-dioxo-1,2,3,6,7,8,9,10,11,13a,14,15,16,16a-tetradecahydrocyclopropa[e]pyrrolo[1,2-a][1,4]diazacyclopentadecine-14a(5H)-carboxamide], the EC50 in experiment [1] stood at 6.1 nM; in experiment [2], 3.9 nM.
For `COc1ccc2c(O[C@@H]3C[C@H]4C(=O)N[C@]5(C(=O)NS(=O)(=O)C6(C)CC6)C[C@H]5/C=C\CCCCC[C@H](NC(=O)N(C)C)C(=O)N4C3)cc(OC3CC3)nc2c1C` [Compound 2012, (2R,6S,12Z,13aS,14aR,16aS)-2-{[2-(cyclopropyloxy)-7-methoxy-8-methylquinolin-4-yl]oxy}-6-[(dimethylcarbamoyl)amino]-N-[(1-methylcyclopropyl)sulfonyl]-5,16-dioxo-1,2,3,6,7,8,9,10,11,13a,14,15,16,16a-tetradecahydrocyclopropa[e]pyrrolo[1,2-a][1,4]diazacyclopentadecine-14a(5H)-carboxamide], the values for the EC50 in experiment [1] and in experiment [2] were 9.9 nM and 1.8 nM, respectively.
`COc1ccc2c(O[C@@H]3C[C@H]4C(=O)N[C@]5(C(=O)NS(=O)(=O)C6(C)CC6)C[C@H]5/C=C\CCCCC[C@H](NC(=O)N5CC(C)(O)C5)C(=O)N4C3)cc(OC(C)C)nc2c1C` [Compound 2013, (2R,6S,12Z,13aS,14aR,16aS)-6-{[(3-hydroxy-3-methylazetidin-1-yl)carbonyl]amino}-2-{[7-methoxy-8-methyl-2-(propan-2-yloxy)quinolin-4-yl]oxy}-N-[(1-methylcyclopropyl)sulfonyl]-5,16-dioxo-1,2,3,6,7,8,9,10,11,13a,14,15,16,16a-tetradecahydrocyclopropa[e]pyrrolo[1,2-a][1,4]diazacyclopentadecine-14a(5H)-carboxamide]: the EC50 in experiment [1] was 6.5 nM; in experiment [2], 3.3 nM.
On to `CCOc1cc(O[C@@H]2C[C@H]3C(=O)N[C@]4(C(=O)NS(=O)(=O)C5(C)CC5)C[C@H]4/C=C\CCCCC[C@H](NC(=O)N4CC(F)C4)C(=O)N3C2)c2ccc(OC)c(C)c2n1` [Compound 2014, (2R,6S,12Z,13aS,14aR,16aS)-2-[(2-ethoxy-7-methoxy-8-methylquinolin-4-yl)oxy]-6-{[(3-fluoroazetidin-1-yl)carbonyl]amino}-N-[(1-methylcyclopropyl)sulfonyl]-5,16-dioxo-1,2,3,6,7,8,9,10,11,13a,14,15,16,16a-tetradecahydrocyclopropa[e]pyrrolo[1,2-a][1,4]diazacyclopentadecine-14a(5H)-carboxamide], for which the EC50 in experiment [1] is 8.4 nM; in experiment [2] it was 0.53 nM.
With `CCOc1cc(O[C@@H]2C[C@H]3C(=O)N[C@]4(C(=O)NS(=O)(=O)C5(C)CC5)C[C@H]4/C=C\CCCCC[C@H](NC(=O)N4CCC4)C(=O)N3C2)c2ccc(OC)c(C)c2n1` [Compound 2015, (2R,6S,12Z,13aS,14aR,16aS)-6-[(azetidin-1-ylcarbonyl)amino]-2-[(2-ethoxy-7-methoxy-8-methylquinolin-4-yl)oxy]-N-[(1-methylcyclopropyl)sulfonyl]-5,16-dioxo-1,2,3,6,7,8,9,10,11,13a,14,15,16,16a-tetradecahydrocyclopropa[e]pyrrolo[1,2-a][1,4]diazacyclopentadecine-14a(5H)-carboxamide], the values for the EC50 in experiment [1] and in experiment [2] were 5.4 nM and 0.67 nM, respectively.
For `COc1ccc2c(O[C@@H]3C[C@H]4C(=O)N[C@]5(C(=O)NS(=O)(=O)C6(C)CC6)C[C@H]5/C=C\CCCCC[C@H](NC(=O)N(C)C)C(=O)N4C3)cc(OC(C)C)nc2c1Br` [Compound 2016, (2R,6S,12Z,13aS,14aR,16aS)-2-{[8-bromo-7-methoxy-2-(propan-2-yloxy)quinolin-4-yl]oxy}-6-[(dimethylcarbamoyl)amino]-N-[(1-methylcyclopropyl)sulfonyl]-5,16-dioxo-1,2,3,6,7,8,9,10,11,13a,14,15,16,16a-tetradecahydrocyclopropa[e]pyrrolo[1,2-a][1,4]diazacyclopentadecine-14a(5H)-carboxamide], the EC50 in experiment [1] was determined as 2 nM; in experiment [2], 1 nM.
`COc1ccc2c(O[C@@H]3C[C@H]4C(=O)N[C@]5(C(=O)NS(=O)(=O)C6(C)CC6)C[C@H]5/C=C\CCCCC[C@H](NC(=O)N5CCC5)C(=O)N4C3)cc(OCC(F)(F)F)nc2c1C` [Compound 2017, (2R,6S,12Z,13aS,14aR,16aS)-6-[(azetidin-1-ylcarbonyl)amino]-2-{[7-methoxy-8-methyl-2-(2,2,2-trifluoroethoxy)quinolin-4-yl]oxy}-N-[(1-methylcyclopropyl)sulfonyl]-5,16-dioxo-1,2,3,6,7,8,9,10,11,13a,14,15,16,16a-tetradecahydrocyclopropa[e]pyrrolo[1,2-a][1,4]diazacyclopentadecine-14a(5H)-carboxamide]: the EC50 in experiment [1] is 6.3 nM; in experiment [2], 1.1 nM.
Turning to `Cc1c(F)ccc2c(O[C@@H]3C[C@H]4C(=O)N[C@]5(C(=O)NS(=O)(=O)C6(C)CC6)C[C@H]5/C=C\CCCCC[C@H](NC(=O)N(C)C)C(=O)N4C3)cc(OC(C)C)nc12` [Compound 2018, (2R,6S,12Z,13aS,14aR,16aS)-6-[(dimethylcarbamoyl)amino]-2-{[7-fluoro-8-methyl-2-(propan-2-yloxy)quinolin-4-yl]oxy}-N-[(1-methylcyclopropyl)sulfonyl]-5,16-dioxo-1,2,3,6,7,8,9,10,11,13a,14,15,16,16a-tetradecahydrocyclopropa[e]pyrrolo[1,2-a][1,4]diazacyclopentadecine-14a(5H)-carboxamide], the EC50 in experiment [1] was 5.7 nM; in experiment [2], 1.2 nM.
With `CCOc1cc(O[C@@H]2C[C@H]3C(=O)N[C@]4(C(=O)NS(=O)(=O)C5(C)CC5)C[C@H]4/C=C\CCCCC[C@H](NC(=O)N(C)C)C(=O)N3C2)c2ccc(OC)c(Br)c2n1` [Compound 2019, (2R,6S,12Z,13aS,14aR,16aS)-2-[(8-bromo-2-ethoxy-7-methoxyquinolin-4-yl)oxy]-6-[(dimethylcarbamoyl)amino]-N-[(1-methylcyclopropyl)sulfonyl]-5,16-dioxo-1,2,3,6,7,8,9,10,11,13a,14,15,16,16a-tetradecahydrocyclopropa[e]pyrrolo[1,2-a][1,4]diazacyclopentadecine-14a(5H)-carboxamide], the half-maximal effective concentration (EC50) came out at 5.2 nM in experiment [1] and 1.4 nM in experiment [2].
As to `COc1ccc2c(O[C@@H]3C[C@H]4C(=O)N[C@]5(C(=O)NS(=O)(=O)C6(C)CC6)C[C@H]5/C=C\CCCCC[C@H](NC(=O)N5CCCC5)C(=O)N4C3)cc(OC(C)C)nc2c1C` [Compound 2020, (2R,6S,12Z,13aS,14aR,16aS)-2-{[7-methoxy-8-methyl-2-(propan-2-yloxy)quinolin-4-yl]oxy}-N-[(1-methylcyclopropyl)sulfonyl]-5,16-dioxo-6-[(pyrrolidin-1-ylcarbonyl)amino]-1,2,3,6,7,8,9,10,11,13a,14,15,16,16a-tetradecahydrocyclopropa[e]pyrrolo[1,2-a][1,4]diazacyclopentadecine-14a(5H)-carboxamide], the EC50 stood at 4 nM in experiment [1] and 1.4 nM in experiment [2].
For `COc1ccc2c(O[C@@H]3C[C@H]4C(=O)N[C@]5(C(=O)NS(=O)(=O)C6(C)CC6)C[C@H]5/C=C\CCCCC[C@H](NC(=O)N5CC(C)(C)C5)C(=O)N4C3)cc(OC(C)C)nc2c1C` [Compound 2021, (2R,6S,12Z,13aS,14aR,16aS)-6-{[(3,3-dimethylazetidin-1-yl)carbonyl]amino}-2-{[7-methoxy-8-methyl-2-(propan-2-yloxy)quinolin-4-yl]oxy}-N-[(1-methylcyclopropyl)sulfonyl]-5,16-dioxo-1,2,3,6,7,8,9,10,11,13a,14,15,16,16a-tetradecahydrocyclopropa[e]pyrrolo[1,2-a][1,4]diazacyclopentadecine-14a(5H)-carboxamide] the same measures were 3 nM and 1.6 nM.
